US5504097A, “N-hydroxyureas as 5-lipoxygenase inhibitors and inhibitors of oxidative modification of low density lipoprotein” (American Home Products Corporation, priority 1995, dated 1996)

Assays:
5-Lipoxygenase = molecular target: T1, 5-Lipoxygenase (Homo sapiens, UniProt P09917); test: Inhibition of 5-Lipoxygenase in Human Whole Blood (LTB4, calcium ionophore A23187); type: cell-based
T1 construct: from tissue; host or cells: whole blood of male human donors (endogenous enzyme of the leukocytes)
T1 sequence (P09917 1-674): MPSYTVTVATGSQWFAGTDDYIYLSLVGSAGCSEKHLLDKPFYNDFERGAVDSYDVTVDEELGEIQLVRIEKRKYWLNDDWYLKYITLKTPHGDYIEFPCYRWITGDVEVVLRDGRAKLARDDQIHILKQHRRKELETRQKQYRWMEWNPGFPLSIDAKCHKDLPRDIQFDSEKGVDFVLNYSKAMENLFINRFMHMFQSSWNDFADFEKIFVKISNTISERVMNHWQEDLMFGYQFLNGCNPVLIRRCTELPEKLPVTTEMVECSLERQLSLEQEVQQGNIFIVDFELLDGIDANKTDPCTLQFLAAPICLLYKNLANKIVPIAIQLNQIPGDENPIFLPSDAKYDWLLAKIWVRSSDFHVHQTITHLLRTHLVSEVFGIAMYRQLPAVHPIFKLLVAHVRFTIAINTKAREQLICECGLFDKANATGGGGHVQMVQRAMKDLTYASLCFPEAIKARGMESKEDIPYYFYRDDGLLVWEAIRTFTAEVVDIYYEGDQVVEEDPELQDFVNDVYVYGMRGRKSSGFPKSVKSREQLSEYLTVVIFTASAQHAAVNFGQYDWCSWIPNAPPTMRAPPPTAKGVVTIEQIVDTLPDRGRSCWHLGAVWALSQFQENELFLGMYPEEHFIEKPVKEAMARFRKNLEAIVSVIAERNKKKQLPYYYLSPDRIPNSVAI
Description: 1. Inhibition of 5-Lipoxygenase in Human Whole Blood
Blood is obtained in 50-100 ml quantities from male donors. White blood cell counts and differentials are made. Two ml of blood are placed in a 15 ml polypropylene test tube. Test compounds are solubilized in dimethylsulfoxide and diluted in 1:10 in 10% bovine serum albumin in phosphate buffered saline, pH 7.4 resulting in a final dimethylsulfoxide concentration of 0.1% in the blood. Then, solutions of test compounds are added to the blood in a shaking water bath at 37° C. for 10 minutes prior to the addition of 30 μM calcium ionophore (A23187, Sigma). After ionophore administration, whole blood samples are mixed and incubated for 20 minutes at 37° C. in a shaking water bath. Incubation is terminated by placing samples in an ice bath and immediately adding ethylene glycol-bis-(β-aminoethyl ether)-N, N,N',N'-tetraacetic acid (10 mM). Samples are mixed and centrifuged at 1200× g for 15 minutes at 4° C. Preparation of samples for evaluation by RIA or ELISA is carried out by the following protocol. Plasma is removed from sample tubes, placed in 15 ml polypropylene test tubes containing 8 ml methanol, and then vortexed to precipitate protein. Samples are stored at -70° C. overnight. The next day, samples are centrifuged at 200× g for 15 minutes at 4° C. to pellet the precipitate. Samples are dried in a Savant SpeedVac Concentrator, Model SVC 200H, reconstituted to original volume with ice cold RIA or ELISA buffer, and stored at -70° C. until assayed. The assay for eicosanoids (LTB4, T×B2, and PGE2) is performed as described by the manufacturer of the ^3 H!-RIA kit or ELISA kit (LTB4 -Amersham, T×B2 and PGE2 -Caymen Chemical).
The total eicosanoid level in 2 ml of blood is calculated and reported as ng/10^6 neutrophils. Significance is determined by a one-way analysis of variance with least significant difference (LSD) comparisons to control (p≤0.05) and IC50 's (μM) are determined by regression analysis (Finney, 1978). Drug effects are expressed as percent change from control values.

Low Density Lipoprotein = test: Inhibition of Copper Ion Mediated Oxidation of Low Density Lipoprotein; type: biochemical; conditions: Cu^+2 mediated oxidation of rabbit or monkey LDL
Description: 5. Inhibition of Copper Ion Mediated Oxidation of Low Density Lipoprotein
In this in vitro assay, the inhibition of Cu^+2 mediated oxidation of rabbit or monkey LDL by an invention compound is determined spectrophotometricallly. Oxidation of LDL results in the formation of LDL-diene which absorbs light at 532 nm. Inhibition of oxidation of LDL leads to a decrease in absorbance at 532 nm.
Rabbit or monkey LDL is prepared according to the procedures of Havel, Eder and Gragdon, "The Distribution and Chemical Composition of Ultracentrifugally Separated Lipoproteins in Human Serum,: J, Clin. Invest. 34, 1345-1353 (1955) and Parhtasarathy, Wieland and Steriberg, "A Role for Endothelial Cell Lipoxygenase in the Oxidative Modification of Low Density Lipoprotein," Proc, Natl. Acad. Sci. USA 86, 1046-1050 (1989). Test compound solutions are prepared by dissolving the invention compounds in ethanol at concentrations up to 248 μM. The medium used is Dulbecco's phosphate buffered saline containing 0.5 mg/ml bovine serum albumin. For standards, 0 to 10 μl of an aqueous solution of 1,1,3,3-tetraethoxypropane (1 μmol/ml H2 O) in 4.1 ml of medium is used.
Test compound solution (100 μl) is added to 4 ml of medium in incubation tubes. To each tube is added 10 μl of LDL solution and 25 μl of aqueous copper sulfate solution (1.32 mg/ml H2 O ). The tubes are incubated at 37° C. for 90 minutes and the oxidation reaction quenched by addition of 1 ml of thiobarbituric acid solution (0.67% in 50% acetic acid). The tubes are heated at 90° C. for 1 hour, then chilled in an ice bath and the chromophore extracted into 2 ml of n-butanol. Absorbence is read at 532 nm and the results are reported as nmols of malondialdehyde equivalents.
Significant differences (p<0.05) are determined by the Dunnett T-test or by the Student-Newman-Keuls Test for significant differences between means. The assay is conducted using several concentrations I! of the inhibitor test compounds. The LDL solution concentrations at different experiments were either 1.5 mg/ml, 2.5 mg/ml or 10.3 mg/ml. The IC50 is determined by non-linear regression, plotting log I! vs. % inhibition. (Reference: K. Yagi, Biochemical Medicine 15, 212-216 (1976)).

Lipoxygenase = test: Ex-Vivo Measurement of Lipoxygenase Inhibition in Orally Dosed Rats (LTB4 in A23187-stimulated blood); set-up: species or system Male Sprague Dawley rats; conditions: 10 mg/kg, p.o.
Description: 2. Ex-Vivo Measurement of Lipoxygenase Inhibition in Orally Dosed Rats
After an interval of 3 or 6 hours, the rats were anesthetized with metofane (n=4/group) and blood collected in heparinized tubes. White blood cell counts and differentials were made. One ml of blood from each animal was placed in a 5 ml plastic tube in a shaker bath at 37° C. A23187 at a final concentration of 10 μM was added to the blood and the blood vortexed and incubated for 15 min at 37° C. with gentle shaking. Incubation was terminated by vortexing sample and centrifuging immediately at 1200× G for 15 min at 4° C. The plasma was transferred to 15 ml plastic tubes each containing 8 ml of methanol to precipitate protein followed by vortexing. The samples were stored at -70° C. overnight and the next day the samples were centrifuged at 800× G for 15 min to pellet the precipitate. The samples were dried in a Savant SpeedVac Concentrator Model SVC 200H and reconstituted to the original volume with cold RIA or ELISA buffer. The reconstituted samples were stored at -70° C. until assayed. The assay for LTB4 was performed according to the directions of the ^3 H!RIA kit or ELISA kit (Seragen). The total metabolite level in 1 ml of blood is calculated and reported as ng/10^6 neutrophils. Significance is determined by a one-way analysis of variance with LSD comparisons to control (p≤0.05).

LTB4 = test: Reverse Passive Arthus Reaction (pleurisy), LTB4 in pleural exudate; type: in vivo, male Lewis rats; conditions: 25 mg/kg, p.o.
Description: 3. Reverse Passive Arthus Reaction
A reverse passive Arthus reaction is induced in the pleural cavity of male Lewis rats (150-200 g; fasted overnight prior to use) by the intravenous administration of bovine serum albumin (BSA; 4 mg/0.2 ml) followed 30 minutes later by the injection of rabbit anti-BSA (1 mg/2.0 ml; lyophilized IgG fraction; Organon Teknika, West Chester, Pa.) into the right pleural space under halothane anesthesia. Drugs or vehicle (0.5% Tween-80) control are administered orally in a volume of 1 ml/100 g body weight at 1 hour prior to the anti-BSA. Animals are sacrificed at either the time of peak eicosanoid production (i.e. 5 minutes after anti-BSA for immunoreactive T×B2, 10 minutes for immunoreactive LTB4, 20 minutes for immunoreactive LTC4) or at the time of peak neutrophil infiltration (4 hours after anti-BSA) by CO2 inhalation. The pleural cavity is then exposed, the fluid exudate removed by gentle vacuum aspiration and the volume of exudate is recorded. For the determination of cellular infiltration, the pleural cavity is rinsed with 3 ml of 0.1% EDTA in sterile saline, and the recovered wash is pooled with the exudate. Cell number is determined on a model ZBI Coulter counter. For determination of eicosanoid production, undiluted pleural exudate is microfuged and the supernatant is extracted with ethanol (8-10 times volume). Extracts are either stored at -20° C., or are evaporated to dryness under a stream of N2 and reconstituted in radioimmunoassay (RIA) buffer.
Eicosanoids are quantitated by RIA according to the procedure specified by the RIA kit manufacturer (Advanced Magnetics, Cambridge, MA). Briefly, 100 μl of ^3 H-labeled eicosanoid and 100 μl of specific antibody are sequentially added to 100 μl of extracted pleural exudate in BGG-phosphate buffer which contains 0.01M phosphate, 0.1% bovine gamma globulin and 0.1% sodium azide at pH 7.0. Antibody-bound eicosanoid is separated from unbound eicosanoid by the addition of 750 μl of dextran (0.4%)-coated charcoal (Norit A) containing 0.1% sodium azide. The mixture is centrifuged at 2000 RPM at 5° C. for 15 minutes to pellet the charcoal and adsorbed unbound eicosanoid. Antibody-bound labeled eicosanoid is quantitated by counting in a liquid scintillation counter, and is correlated to concentration by a standard curve.

atherosclerotic lesions = conditions: WHHL rabbits, in words; cited from earlier work
LDL [1] = conditions: in words; cited from earlier work
LDL [2] = conditions: in words; cited from earlier work; remark: listed apart in the source

SMILES | inhibition at 1 µM (5-Lipoxygenase) [%] | IC50 (Low Density Lipoprotein) [nM] | % Inhibition of LTB4 (Lipoxygenase; pretreatment period 3 hr) [%] | % Inhibition of LTB4 (Lipoxygenase; pretreatment period 6 hr) [%] | inhibition at 10 µM (5-Lipoxygenase) [%] | % Inhibition of LTB4 Synthesis (LTB4) [%] | also measured
Cc1oc(-c2ccccc2)nc1COc1ccc(CN(O)C(N)=O)cc1Cl [Example 2, 1-3-Chloro-4-(5-methyl-2-phenyl-oxazol-4-ylmethoxy)-benzyl!-1-hydroxy-urea] | 31 | 560 | 68 | 72 | – | – | –
Cc1oc(-c2ccccc2)nc1COc1ccc(CN(O)C(N)=O)c(Cl)c1 [Example 3, 1-2-Chloro-4-(5-methyl-2-phenyl-oxazol-4-ylmethoxy)-benzyl!-1-hydroxy-urea] | – | – | 40 | – | 80 | 26 | –
COc1cc(CN(O)C(N)=O)ccc1OCc1nc(-c2ccccc2)oc1C [Example 4, 1-Hydroxy-1-3-methoxy-4-(5-methyl-2-phenyl-oxazol-4-ylmethoxy)-benzyl!-urea] | – | 810 | – | – | 81 | – | –
Cc1oc(-c2ccccc2)nc1COc1ccc(CN(O)C(N)=O)cc1F [Example 5, 1-3-Fluoro-4-(5-methyl-2-phenyl-oxazol-4-ylmethoxy)-benzyl!-1-hydroxy-urea] | 47 | – | 66 | 68 | – | 28 | –
NC(=O)N(O)Cc1ccc(OCc2csc(-c3ccc(Cl)cc3)n2)cc1 [Example 14, 1-4-2-(4-chloro-phenyl)-thiazol-4-ylmethoxy!-benzyl!-1-hydroxy-urea] | 71 | 1100 | – | – | – | – | –
CC(C)(Sc1cc(C(C)(C)C)c(O)c(C(C)(C)C)c1)Sc1cc(C(C)(C)C)c(O)c(C(C)(C)C)c1 [Probucol] | – | – | – | – | – | – | inhibition of formation of atherosclerotic lesions (atherosclerotic lesions): inhibit the formation of atherosclerotic lesions; inhibition of cell mediated oxidative modification of LDL (LDL [1]): inhibits; inhibition of Cu^+2 mediated oxidative modification of LDL (LDL [2]): inhibits
